Read-outs that look alike come from different tables or passages of the source.
What was measured:
PI3Kβ = biological target: T1, PI3Kβ (Homo sapiens, UniProt P42338); assay: HTRF in vitro profiling assay for PI3K inhibition, beta isoform; format: biochemical; settings: in at least one experimental run; read-out: IC50 against PI3Kβ
T1 construct: made in house
From the text: (§1) HTRF In vitro Profiling Assays for PI3K Inhibition
(§2) The PI3-Kinase profiling assays were developed to measure the compound-dependent inhibition of the alpha, beta, delta, and gamma isoforms of PI3Kin an in vitro catalytic assay. This assay was developed and optimized from a kit produced by Upstate (Millipore catalog #33-017). Briefly, this procedure utilizes a pre-formed HTRF (Homogeneous Time-Resolved Fluorescence energy transfer) complex between four binding partners: 1) biotinylated PIP3, 2) GST tagged pleckstrin homology (PH) domain, 3) Europium labeled anti-GST monoclonal antibody, and 4) Streptavidin-Allophycocyanin (APC). The native PIP3 produced by PI 3-Kinase activity displaces biotin-PIP3 from the PH domain, resulting in the dissociation of the HTRF complex and a decrease in the fluorescence signal. The format of this assay is the same for all 4 isoforms of PI3K; the differences lie in the concentration of enzyme used to achieve the most robust signal. The alpha and delta assays are run at […] enzyme and the gamma assay is run at 1 nM enzyme. In addition, the alpha, beta and delta assays are run with 150 mM NaCl while the gamma assay is run in the absence of NaCl. The ATP concentration is 100 uM in the alpha, beta, and delta assays and 15 uM ATP in the gamma assay. All reactions are run at 10 uM PIP2
Compounds are serially diluted (3-fold in 100% DMSO) across a 384-well polypropylene mother plate from column I to column 12 and column 13 to column 24, to yield 11 concentrations for each test compound. Columns 6 and 18 contain only DMSO. Once titrations are made, 0.05 μL is transferred to a 384-well low-volume assay plate (Greiner 784076). This assay plate contains three pharmacological controls (known PI3K inhibitors) and 3 assay controls: (1) Enzyme without inhibitor; (2) Buffer minus enzyme, and (3) Buffer minus enzyme plus native PIP3. DMSO is stamped into all wells of columns 6 and 18. PIP3 is added at 40 μM in 1× Reaction buffer (1 μL of 200 μM PIP3) to alternating rows of column 18 (wells 18 B, D, F, H, J, L, N, P). […]

PI3Kδ = biological target: T2, PI3Kδ (Homo sapiens, UniProt O00329); assay: HTRF in vitro profiling assay for PI3K inhibition, delta isoform; format: biochemical; settings: in at least one experimental run
T2 construct: made in house
T2 sequence (O00329 whole entry, canonical isoform): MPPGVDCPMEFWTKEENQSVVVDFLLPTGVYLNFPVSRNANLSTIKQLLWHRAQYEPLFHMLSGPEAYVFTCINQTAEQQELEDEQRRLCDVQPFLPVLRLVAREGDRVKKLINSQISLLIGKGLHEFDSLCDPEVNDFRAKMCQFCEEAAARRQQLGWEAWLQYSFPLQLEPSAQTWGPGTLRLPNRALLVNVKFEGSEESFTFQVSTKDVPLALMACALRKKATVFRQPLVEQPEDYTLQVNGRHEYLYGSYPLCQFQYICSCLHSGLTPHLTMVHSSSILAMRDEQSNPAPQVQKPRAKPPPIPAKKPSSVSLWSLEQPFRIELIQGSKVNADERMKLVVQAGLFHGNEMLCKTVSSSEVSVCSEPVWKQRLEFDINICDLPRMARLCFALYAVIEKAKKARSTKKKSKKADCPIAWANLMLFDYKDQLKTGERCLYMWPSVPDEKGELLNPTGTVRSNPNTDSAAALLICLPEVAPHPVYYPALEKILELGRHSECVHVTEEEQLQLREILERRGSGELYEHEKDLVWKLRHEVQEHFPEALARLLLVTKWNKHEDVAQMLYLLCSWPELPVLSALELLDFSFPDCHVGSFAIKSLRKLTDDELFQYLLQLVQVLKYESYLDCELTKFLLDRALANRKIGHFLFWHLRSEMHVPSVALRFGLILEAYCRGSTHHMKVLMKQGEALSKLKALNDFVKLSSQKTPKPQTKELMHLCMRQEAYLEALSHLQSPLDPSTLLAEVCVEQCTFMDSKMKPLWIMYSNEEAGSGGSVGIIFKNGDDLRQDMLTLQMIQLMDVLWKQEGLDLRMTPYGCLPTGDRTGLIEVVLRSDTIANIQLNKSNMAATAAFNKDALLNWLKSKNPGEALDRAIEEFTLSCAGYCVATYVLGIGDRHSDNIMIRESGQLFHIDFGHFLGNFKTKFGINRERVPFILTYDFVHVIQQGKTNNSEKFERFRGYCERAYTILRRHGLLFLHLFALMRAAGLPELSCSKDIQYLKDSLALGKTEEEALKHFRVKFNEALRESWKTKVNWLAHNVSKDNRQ
T2 sequence (P27986 2-724 partner limits assumed): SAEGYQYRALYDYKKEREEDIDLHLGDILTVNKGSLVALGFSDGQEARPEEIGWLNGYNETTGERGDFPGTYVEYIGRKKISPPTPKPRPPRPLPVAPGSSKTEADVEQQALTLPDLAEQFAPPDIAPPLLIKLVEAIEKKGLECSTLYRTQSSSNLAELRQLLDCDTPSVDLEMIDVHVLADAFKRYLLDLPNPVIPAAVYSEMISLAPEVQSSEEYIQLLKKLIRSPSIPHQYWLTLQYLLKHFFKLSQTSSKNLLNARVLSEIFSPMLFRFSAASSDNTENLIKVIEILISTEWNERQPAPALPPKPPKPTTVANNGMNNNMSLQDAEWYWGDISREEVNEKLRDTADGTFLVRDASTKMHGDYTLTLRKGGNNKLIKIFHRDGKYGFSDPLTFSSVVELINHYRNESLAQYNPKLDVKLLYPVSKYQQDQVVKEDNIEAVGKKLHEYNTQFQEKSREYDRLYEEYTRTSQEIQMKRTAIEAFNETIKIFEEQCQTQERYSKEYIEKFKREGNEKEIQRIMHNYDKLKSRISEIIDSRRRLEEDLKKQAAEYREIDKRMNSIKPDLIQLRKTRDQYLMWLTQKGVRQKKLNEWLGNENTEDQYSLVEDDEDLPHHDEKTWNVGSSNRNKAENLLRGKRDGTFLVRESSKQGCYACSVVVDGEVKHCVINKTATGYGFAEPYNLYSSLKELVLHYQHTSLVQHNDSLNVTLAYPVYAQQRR
From the text: as §1, §2
Compounds are serially diluted (3-fold in 100% DMSO) across a 384-well polypropylene mother plate from column I to column 12 and column 13 to column 24, to yield 11 concentrations for each test compound. Columns 6 and 18 contain only DMSO. Once titrations are made, 0.05 μL is transferred to a 384-well low-volume assay plate (Greiner 784076). This assay plate contains three pharmacological controls (known PI3K inhibitors) and 3 assay controls: (1) Enzyme without inhibitor; (2) Buffer minus enzyme, and (3) Buffer minus enzyme plus native PIP3. DMSO is stamped into all wells of columns 6 and 18. PIP3 is added at 40 μM in 1× Reaction buffer (1 μL of 200 μM PIP3) to alternating rows of column 18 (wells 18 B, D, F, H, J, L, N, P). The no-enzyme control reactions are run in wells 18 A, C, E, G, I, K, M, O (0.1 μL of 100% DMSO).
The PI3-Kinase profiling assay was optimized using the HTRF kit provided by Upstate (Millipore). The assay kit contains seven reagents: 1) 4× Reaction Buffer; 2) native PIP2 (substrate); 3) Stop A (EDTA); 4) Stop B (Biotin-PIP3); 5) Detection Mix A (Streptavidin-APC); 6) Detection Mix B (Eu-labeled Anti-GST plus GST-tagged PH-domain); 7) Detection Mix C (KF). In addition, the following items were obtained or purchased: PI3Kinase (prepared by GSK BR&AD), dithiothreitol (Sigma, D-5545), Adenosine-5′-triphosphate (ATP, Teknova cat. #A0220), native PIP3 (1,2-dioctanoyl-sn-glycero-3-[phosphoinositil-3,4,5-triphosphate]tetraammonium salt (Avanti polar lipids, 850186P), DMSO (Sigma, 472301).
PI3Kinase Reaction Buffer is prepared by diluting the stock 1:4 with de-ionized water. Freshly prepared DTT is added at a final concentration of 5 mM on the day of use. Enzyme addition and compound pre-incubation are initiated by the addition of 2.5 μL of PI3K (at twice its final concentration) in 1× reaction buffer to all wells using a Multidrop Combi. Plates are incubated at room temperature for 15 minutes. Reactions are initiated by addition of 2.5 μL of 2× substrate solution (PIP2 and ATP in 1× reaction buffer) using a Multidrop Combi. Plates are incubated at room temperature for one hour. Reactions are quenched by the addition of 2.5 μL of stop solution (Stop A and Stop B pre-mixed at a ratio of 5:1, respectively) to all wells using the Multidrop Combi. […]

[1] = read-out: pIC50 against PI3Kδ (converted)

T1 sequence (P42338 whole entry, canonical isoform): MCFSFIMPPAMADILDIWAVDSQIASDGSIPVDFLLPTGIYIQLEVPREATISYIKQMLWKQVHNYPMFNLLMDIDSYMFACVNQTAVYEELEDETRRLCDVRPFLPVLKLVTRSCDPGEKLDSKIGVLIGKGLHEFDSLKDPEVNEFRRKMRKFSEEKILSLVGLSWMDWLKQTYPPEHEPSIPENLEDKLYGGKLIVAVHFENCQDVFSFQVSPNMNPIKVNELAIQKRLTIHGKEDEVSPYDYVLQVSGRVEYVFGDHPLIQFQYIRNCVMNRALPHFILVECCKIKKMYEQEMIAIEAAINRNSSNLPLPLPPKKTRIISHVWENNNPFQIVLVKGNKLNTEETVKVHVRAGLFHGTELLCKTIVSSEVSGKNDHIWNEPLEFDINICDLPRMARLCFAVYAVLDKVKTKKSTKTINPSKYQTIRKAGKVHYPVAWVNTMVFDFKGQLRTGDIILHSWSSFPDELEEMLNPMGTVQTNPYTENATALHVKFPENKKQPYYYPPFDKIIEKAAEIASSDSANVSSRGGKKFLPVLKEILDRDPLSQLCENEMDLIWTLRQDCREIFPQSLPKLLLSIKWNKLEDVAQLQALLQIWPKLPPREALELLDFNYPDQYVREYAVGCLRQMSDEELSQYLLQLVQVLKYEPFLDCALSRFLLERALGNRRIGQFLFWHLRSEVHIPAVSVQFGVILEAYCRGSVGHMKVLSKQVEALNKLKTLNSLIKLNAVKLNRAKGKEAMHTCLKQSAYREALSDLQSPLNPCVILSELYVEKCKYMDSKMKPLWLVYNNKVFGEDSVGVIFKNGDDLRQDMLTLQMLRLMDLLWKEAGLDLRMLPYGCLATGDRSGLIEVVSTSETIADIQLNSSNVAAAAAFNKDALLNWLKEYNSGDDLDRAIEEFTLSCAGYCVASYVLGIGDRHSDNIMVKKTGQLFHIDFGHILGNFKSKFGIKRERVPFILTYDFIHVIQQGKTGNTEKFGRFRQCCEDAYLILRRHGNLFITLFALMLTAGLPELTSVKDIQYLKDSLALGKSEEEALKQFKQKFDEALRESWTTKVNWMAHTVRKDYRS
T1 sequence (P27986 whole entry partner, canonical isoform): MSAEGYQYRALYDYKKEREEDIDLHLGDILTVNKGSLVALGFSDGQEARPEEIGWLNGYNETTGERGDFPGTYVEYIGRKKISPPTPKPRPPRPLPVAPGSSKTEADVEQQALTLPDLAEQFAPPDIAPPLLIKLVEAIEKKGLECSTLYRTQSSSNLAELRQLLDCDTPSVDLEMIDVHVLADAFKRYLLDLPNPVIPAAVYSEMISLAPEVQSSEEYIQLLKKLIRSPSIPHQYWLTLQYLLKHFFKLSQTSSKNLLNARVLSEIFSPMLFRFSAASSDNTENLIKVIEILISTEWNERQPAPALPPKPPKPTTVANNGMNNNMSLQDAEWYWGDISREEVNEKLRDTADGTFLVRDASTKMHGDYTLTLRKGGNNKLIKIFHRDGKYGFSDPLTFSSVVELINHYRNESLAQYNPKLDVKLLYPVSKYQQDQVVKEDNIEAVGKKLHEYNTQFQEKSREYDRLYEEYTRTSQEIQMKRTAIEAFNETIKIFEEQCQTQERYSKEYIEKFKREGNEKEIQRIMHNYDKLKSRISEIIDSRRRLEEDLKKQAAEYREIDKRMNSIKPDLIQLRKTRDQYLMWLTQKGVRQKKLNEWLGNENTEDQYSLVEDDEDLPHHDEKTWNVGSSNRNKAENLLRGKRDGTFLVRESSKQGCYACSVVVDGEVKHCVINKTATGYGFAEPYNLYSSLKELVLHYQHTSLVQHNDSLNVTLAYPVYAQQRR

| SMILES | IC50 (PI3Kβ) [nM] | IC50 (PI3Kδ; [1]) [nM] | further results |
| --- | --- | --- | --- |
| O=c1ncn(Cc2ccccc2C(F)(F)F)c2nc(N3CCOCC3)sc12 [Example 1, 2-(4-morpholinyl)-4-{[2(trifluoromethyl)phenyl]methyl}[1,3]thiazolo[4,5-d]pyrimidin-7(4H)-one] | 320 | – | – |
| Cc1c(Cl)cccc1Cn1cnc(=O)c2sc(N3CCOCC3)nc21 [Example 3, 4-[(3-chloro-2-methylphenyl)methyl]-2-(4-morpholinyl)[1,3]thiazolo[4,5-d]pyrimidin-7(4H)-one] | 400 | – | – |
| N#Cc1cccc(Cn2cnc(=O)c3sc(N4CCOCC4)nc32)c1 [Example 20, 3-{[2-(4-morpholinyl)-7-oxo[1,3]thiazolo[4,5-d]pyrimidin-4(7H)-yl]methyl}benzonitrile] | – | – | IC50 (PI3Kδ; read-out: IC50 against PI3Kδ): 8 nM |
| Cc1c(Cn2c(C)nc(=O)c3sc(N4CCOCC4)nc32)cccc1C(F)(F)F [Example 59, 5-methyl-4-{[2-methyl-3-(trifluoromethyl)phenyl]methyl}-2-(4-morpholinyl)[1,3]thiazolo[4,5-d]pyrimidin-7(4H)-one] | 0.5 | – | – |
| Cc1c(Cn2c(-c3ccccc3)nc(=O)c3sc(N4CCOCC4)nc32)cccc1C(F)(F)F [Example 79, 4-{[2-methyl-3-(trifluoromethyl)phenyl]methyl}-2-(4-morpholinyl)-5-phenyl[1,3]thiazolo[4,5-d]pyrimidin-7(4H)-one] | – | 50.1 | – |
| Cc1c(Cl)cccc1Cn1c(C2CCCO2)nc(=O)c2sc(N3CCOCC3)nc21 (stereo not drawn) [Example 83, 4-[(3-chloro-2-methylphenyl)methyl]-2-(4-morpholinyl)-5-(tetrahydro-2-furanyl)[1,3]thiazolo[4,5-d]pyrimidin-7(4H)-one] | – | 1.26 | – |

The next lines start with results.

| IC50 (PI3Kβ) [nM] | IC50 (PI3Kδ; [1]) [nM] | SMILES | further results |
| --- | --- | --- | --- |
| – | 0.158 | CCc1nc(=O)c2sc(N3CCOCC3)nc2n1Cc1cccc(Cl)c1C [Example 75, 4-[(3-chloro-2-methylphenyl)methyl]-5-ethyl-2-(4-morpholinyl)[1,3]thiazolo[4,5-d]pyrimidin-7(4H)-one] | – |
| – | 0.126 | Cc1c(Cl)cccc1Cn1c(CO)nc(=O)c2sc(N3CCOCC3)nc21 [Example 84, 4-[(3-chloro-2-methylphenyl)methyl]-5-(hydroxymethyl)-2-(4-morpholinyl)[1,3]thiazolo[4,5-d]pyrimidin-7(4H)-one] | – |
| – | 2.51 | Cc1c(Cl)cccc1Cn1c(CN)nc(=O)c2sc(N3CCOCC3)nc21 [Example 111, 5-(aminomethyl)-4-[(3-chloro-2-methylphenyl)methyl]-2-(4-morpholinyl)[1.3]thiazolo[4,5-d]pyrimidin-7(4H)-one] | – |
